Results reported in patent publication US6849632B2, “Heteroaryl alkyl piperazine derivatives” (CV Therapeutics, Inc., priority 2000, dated 2005).
Like-named read-outs stand apart in the source and are kept apart here.

Legend:
[1] = Metabolic stability, incubation with human liver S-9 fractions; format: in vitro ADME; details: for Liver S9 Stability Factor: % parent remaining after 30 min at 37 C with human liver S9, divided by average % ranolazine remaining (57%)
Method: Metabolic Stability: As a measure of metabolic stability the compounds of this invention were incubated with human liver S-9 microsomal fractions. After, 30 minutes at 37 C, the amount of parent drug remaining was determined using LC-mass spec. The response factors for each compound was determined by establishing a standard curve and using an internal standard during the analysis of the samples. An average of five experiments for percentage of ranolazine remaining at the 30 minute time point is 57%. The compounds of this invention were assayed as described in the protocol below and the percentage of parent remaining was divided by the average % of ranolazine remaining (57%) affording a metabolic stability factor. A compound with a stability number greater than 1.2 has a better stability than ranolazine in the liver S-9 assay. A compound with a stability number between 1.2 and 0.8 has an equivalent stability in the liver S-9 assay.
The purpose of this experiment is to compare the percentages remaining for compounds of this invention with the percentage remaining for ranolazine after 30 minutes of incubation with human liver S9 fractions.
The following reagents were used; Potassium phosphate, 0.5M pH 7.4 (incubation buffer), kept at room temperature; 0.05M MgCl^2 kept at 4° C.; β-Nicotinamide adenine dinucleotide phosphate, tetrasodium salt, reduced form (NADPH), 0.02M solution in water (˜16.6 mg/mL) from Sigma Lot #79H7044 prepared on day of use. 1 mM of ranolazine or Compounds 43, 45, 47, 52, 70, 74, 76, 78, and 80 in ACN further diluted to obtain 100 μM in 10% ACN; Human S9 stock: 20 mg/mL from Gentest.
Incubation mixtures were prepared as follows:
Combine all components with incubation buffer and re-pipette 200 μL/tube+25 μL of the compound being tested along with 25 μL of S-9.
After 5 min of pre-incubation at 37° C., at 0 and 30 min after starting the reaction, a 50 μl aliquot of the incubation mixture was removed and added to 100 μL of 9:1 acetonitrile:methanol containing the internal standard.
The mixture was centrifuged and a 100 μL aliquot of the supernatant was diluted in 1 mL of solvent C (0.1% Formic Acid in water). Then samples were analyzed for change between the ratio of compound to internal standard at time zero and 30 minutes by LC/MS (injected 10 μL).
Samples were analyzed for the starting compounds and potential metabolite/s by LC/MS using an internal standard and an ODS-C18 column with a flow rate of 0.25 ml/min.

[2] = system: mitochondrial fatty acid oxidation using palmitoyl CoA as substrate; experiment: Palmitoyl CoA oxidation in isolated rat heart mitochondria; format: biochemical; details: for Inhibition of mitochondrial fatty acid oxidation using palmitoyl CoA as substrate - % of Control, 100 μm (%): 100 μm compound, 15 min at 30° C.
Method: Rat heart mitochondria were isolated by the method of Nedergard and Cannon (Methods in Enzymol. 55, 3, 1979). Palmitoyl CoA oxidation—The Palmityl CoA oxidation was carried out in a total volume of 100 micro liters containing the following agents: 110 mM KCl, 33 mM Tris buffer at pH 8, 2 mM KPi, 2 mM MgCl2, 0.1 mM EDTA, 14.7 microM defatted BSA, 0.5 mM malic acid, 13 mM carnitine, 1 mM ADP, 52 micrograms of mitochondrial protein, and 16 microM 1-C14 palmitoyl CoA (Sp. Activity 60 mCi/mmole; 20 microCi/ml, using 5 microliters per assay). The compounds of this invention were added in a DMSO solution at the following concentrations: 100 microM, and 50 microM. In each assay, a DMSO control was used. After 15 min at 30° C., the enzymatic reaction was centrifuged (20,000 g for 1 min), and 70 microliters of the supernatant was added to an activated reverse phase silicic acid column (approximately 0.5 ml of silicic acid). The column was eluted with 2 ml of water, and 0.5 ml of the eluent was used for scintillation counting to determine the amount of C^14 trapped as C^14 bicarbonate ion.

[3] = Table 1, read-out: IC50 (μm), inhibition of mitochondrial fatty acid oxidation using palmitoyl CoA as substrate
[4] = Table IA, read-out: Effect on Palmitoyl CoA Oxidation (IC50)

Row | Structure (SMILES) | percentage of parent drug remaining at the 30 minute time point ([1]; human liver S-9, 30 minutes at 37 C, average of five experiments) | Liver S9 Stability Factor [1] | Inhibition of mitochondrial fatty acid oxidation using palmitoyl CoA as substrate - % of Control, 100 μm (%) [2] | IC50 [2, 3] | IC50 [2, 4]
1 | COc1ccccc1OCC(O)CN1CCN(CC(=O)Nc2c(C)cccc2C)CC1 (racemic) [ranolazine, (±)-N-(2,6-dimethylphenyl)-4-[2-hydroxy-3-(2-methoxyphenoxy)-propyl]-1-piperazineacetamide, reference compound] | 57% | – | – | – | –
2 | Cc1cccc(C)c1NC(=O)CN1CCN(CC(O)COc2nc3ccccc3s2)CC1 (centres unmarked) [Compound 43, 2-{4-[3-(benzothiazol-2-yloxy)-2-hydroxy-propyl]-piperazin-1-yl}-N-(2,6-dimethylphenyl)acetamide] | – | 0.6 | 21% | – | –
3 | Cc1nc2cc(OCC(O)CN3CCN(CC(=O)Nc4c(C)cccc4C)CC3)ccc2s1 (centres unmarked) [Compound 45, N-(2,6-dimethylphenyl)-2-{4-[2-hydroxy-3-(2-methyl-benzothiazol-5-yloxy)-propyl]-piperazin-1-yl}acetamide] | – | 0.8 | 87% | ~20 µM | 15 µM
4 | Cc1cccc(C)c1NC(=O)CN1CCN(CC(O)COc2cccc3[nH]c(C(N)=O)cc23)CC1 (centres unmarked) [Compound 46, 4-(3-{4-[(2,6-dimethylphenylcarbamoyl)-methyl]-piperazin-1-yl}-2-hydroxypropoxy)-1H-indole-2-carboxylic acid amide] | – | 1.1 | 61% | ~125 µM | –
5 | Cc1cccc(C)c1NC(=O)CN1CCN(CC(O)COc2ccc3ncsc3c2)CC1 (centres unmarked) [Compound 47, 2-{4-[3-(benzothiazol-6-yloxy)2-hydroxy-propyl]-piperazin-1-yl}-N-(2,6-dimethylphenyl)-acetamide] | – | 1.5 | 70% | ~125 µM | –
6 | Cc1nc2cc(OCC(O)CN3C(C)CN(CC(=O)Nc4c(C)cccc4C)CC3C)ccc2s1 (stereo not drawn) [Compound 52, N-(2,6-dimethylphenyl)-2-{4-[2-hydroxy-3-(2-methyl-benzothiazol-5-yloxy)-propyl]-3,5-cis dimethyl-piperazine-1-yl}acetamide] | – | 0.5 | 95% | ~1 µM | 0.7 µM
7 | Cc1cccc(C)c1NC(=O)CN1CCN(CC(O)COc2cnc3ccccc3n2)CC1 (centres unmarked) [Compound 70, N-(2,6-dimethylphenyl)-2-{4-[2-hydroxy-3-(quinoxalin-2-yloxy)-propyl]-piperazin-1-yl}acetamide] | – | 0.1 | – | – | –
8 | Cc1cccc(C)c1NC(=O)CN1CCN(CC(O)COc2ccnc3ccccc23)CC1 (centres unmarked) [Compound 74, N-(2,6-dimethylphenyl)-2-{4-[2-hydroxy-3-(quinolin-4-yloxy)-propyl]-piperazin-1-yl}acetamide] | – | 1.0 | 12% | – | –
9 | Cc1cccc(C)c1NC(=O)CN1CCN(CC(O)COc2cccc3cnccc23)CC1 (centres unmarked) [Compound 76, N-(2,6-dimethylphenyl)-2-{4-[2-hydroxy-3-(isoquinolin-5-yloxy)-propyl]-piperazin-1-yl}acetamide] | – | 0.8 | 26% | – | –
10 | Cc1cccc(C)c1NC(=O)CN1CCN(CC(O)COc2ccc3ncccc3c2)CC1 (centres unmarked) [Compound 78, N-(2,6-dimethylphenyl)-2-{4-[2-hydroxy-3-(quinolin-6-yloxy)-propyl]-piperazin-1-yl}acetamide] | – | 0.6 | 42% | – | –
11 | Cc1ccc2ccc(OCC(O)CN3CCN(CC(=O)Nc4c(C)cccc4C)CC3)cc2n1 (centres unmarked) [Compound 80, N-(2,6-dimethylphenyl)-2-{4-[2-hydroxy-3-(2-methyl-quinolin-7-yloxy)-propyl]-piperazin-1-yl}acetamide] | – | 0.5 | 22% | – | –
